# Calls of active or inactive are those of the source.
# Assays:
# [1] = molecular target: T1, Heat shock factor protein 1 (Mus musculus, UniProt P38532); test: decrease of HSF1-responsive luciferase luminescence – cell-based, NIH3T3, dose retest, confirmation (AID 2382); type: functional;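 note: NIH3T3 fibroblasts with HSF1-driven luciferase reporter stressed by proteasome inhibitor MG132; luminescence from HSF1-driven luciferase expression after 8 hours of MG132 stress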
# T1 sequence (P38532 whole entry): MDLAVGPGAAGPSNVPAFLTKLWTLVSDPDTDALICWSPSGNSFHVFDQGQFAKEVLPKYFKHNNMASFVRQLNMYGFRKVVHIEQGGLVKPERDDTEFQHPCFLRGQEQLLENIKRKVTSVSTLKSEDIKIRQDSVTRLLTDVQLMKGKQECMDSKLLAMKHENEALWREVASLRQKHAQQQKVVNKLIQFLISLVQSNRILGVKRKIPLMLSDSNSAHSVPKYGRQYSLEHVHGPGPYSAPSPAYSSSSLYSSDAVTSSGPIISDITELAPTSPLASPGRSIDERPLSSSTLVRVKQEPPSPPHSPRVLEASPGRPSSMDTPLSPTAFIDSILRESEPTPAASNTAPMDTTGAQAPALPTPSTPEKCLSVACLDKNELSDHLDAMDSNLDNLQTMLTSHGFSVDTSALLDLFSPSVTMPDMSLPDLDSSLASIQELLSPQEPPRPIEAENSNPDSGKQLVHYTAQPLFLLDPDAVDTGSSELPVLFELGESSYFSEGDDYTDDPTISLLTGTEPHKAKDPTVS
# cells = type: functional
# [2] = NIH3T3 cell viability loss – ATP luminescence, mouse fibroblasts, counter-screen, dose response (AID 2010); type: functional, cell-based;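 note: cells exposed to compound for about 90 hours before reading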
# [3] = Trypanosoma cruzi growth suppression in host cells – NIH3T3 host cells, beta-gal luminescence, confirmation (AID 2044); type: functional, cell-based;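 note: intracellular parasites grown in NIH/3T3 mouse fibroblasts as host cells; luminescent beta-galactosidase reporter signal from transgenic T. cruzi replicating inside host cells; inhibitors lower the luminescence signal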
# [4] = molecular target: T2, Polyadenylate-binding protein 1 (Homo sapiens, UniProt P11940); test: MLLE domain peptide-binding blockers, IC50 – biochemical, fluorescence polarization, FITC-PAM2 peptide, dose response (AID 602259); type: functional; details: read-out: IC50_Mean
# [5] = molecular target: T2, Polyadenylate-binding protein 1; test: MLLE binding blockers, Cy5 peptide tracer – biochemical, fluorescence polarization, Cy5-PAM2 peptide, secondary, miRNA deadenylation inhibitor project, dose response (AID 602260); type: functional; details: read-out: IC50_Mean
# [6] = viability of uninfected HEp-2 cells – cell-based, HTS, cytotoxicity control for RSV inhibitor project, dose response (AID 2410); type: functional; details: human respiratory syncytial virus
# [7] = molecular target: FAD-linked sulfhydryl oxidase ALR (Homo sapiens, UniProt P55789); test: ALR-catalysed DTT oxidation blockers – biochemical, H2O2 detection, luminescence, cherry-pick, dose response (AID 493248)
# Fatty acid synthase [8] = molecular target: T3, Fatty acid synthase (Homo sapiens, UniProt P49327); test: inhibition of human FAS-TE enzyme activity – biochemical, kinetic fluorescence intensity, dose response (AID 624326); type: functional;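 note: rate of fluorescence rise from hydrolysis of a fluorogenic O-methyl fluorescein ester substrate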
# Fatty acid synthase [9] = molecular target: T3, Fatty acid synthase; test: inhibition of human FAS-TE enzyme activity – biochemical, endpoint fluorescence intensity, uHTS hits, dose response (AID 624327); type: functional;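 note: fluorescence from hydrolysis of an O-methyl fluorescein acyl ester substrate by the enzyme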
# INS1 = test: INS-1E survival protection against cytokine death – cell-based, luminescence, retest, dose response (AID 449756); type: functional; details: Rattus norvegicus;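 note: cell death triggered by IL-1 beta plus TNF-alpha plus IFN-gamma mixture; protective hits raise ATP signal compared with cytokine alone wells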
# [10] = Luminescence Cell-Based Dose Response HTS to Identify Activators of Luciferase Translation or Activity in H4 […] Cells. [Related pubchem assays: 1829 (Project Summary), 1814 (Primary HTS)]; type: functional
# H4 = test: Luminescence Cell-Based Dose Response HTS to Identify Activators of 5'UTR Stem-Loop Driven Prion Protein mRNA Translation in H4 Neuroglioblastoma Cells. [Related pubchem assays: 1829 (Project Summary), 1814 (Primary HTS)]; type: functional; details: Homo sapiens
# Protein skinhead-1 = molecular target: T4, Protein skinhead-1 (Caenorhabditis elegans, UniProt P34707); type: functional
# T4 sequence (P34707 whole entry): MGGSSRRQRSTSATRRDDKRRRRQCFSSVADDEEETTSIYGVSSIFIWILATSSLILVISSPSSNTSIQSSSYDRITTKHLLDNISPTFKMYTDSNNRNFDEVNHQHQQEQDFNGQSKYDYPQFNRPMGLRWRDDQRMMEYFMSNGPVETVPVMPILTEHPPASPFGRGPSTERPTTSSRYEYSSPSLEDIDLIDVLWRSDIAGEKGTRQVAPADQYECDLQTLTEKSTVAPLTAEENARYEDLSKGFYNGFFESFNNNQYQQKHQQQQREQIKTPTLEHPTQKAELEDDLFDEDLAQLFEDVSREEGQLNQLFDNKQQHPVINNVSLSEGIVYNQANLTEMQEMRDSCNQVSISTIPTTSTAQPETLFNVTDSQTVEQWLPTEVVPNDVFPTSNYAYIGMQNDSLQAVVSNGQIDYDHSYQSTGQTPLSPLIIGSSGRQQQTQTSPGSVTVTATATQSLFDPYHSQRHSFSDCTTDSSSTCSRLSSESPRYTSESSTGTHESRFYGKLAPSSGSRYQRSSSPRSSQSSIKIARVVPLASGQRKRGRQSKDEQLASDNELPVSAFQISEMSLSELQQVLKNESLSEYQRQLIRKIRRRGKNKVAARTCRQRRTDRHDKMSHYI
# [11] = alpha-synuclein stem-loop luciferase translation blockers – H4 neuroglioma cells, luminescence, confirmation (AID 1988); type: functional, cell-based
# [12] = luciferase reporter signal suppression in cells – H4 neuroglioma cells, luminescence, dose response (AID 1990); type: functional, cell-based
# [13] = Luminescence Cell-Based Dose Response HTS to Identify Inhibitors of 5'UTR Stem-Loop Driven Prion Protein mRNA Translation in H4 Neuroglioblastoma Cells. [Related pubchem assays: 1827 (Project Summary), 1813 (Primary HTS)]; type: functional
# [14] = viability of PTEN-deleted HCT116 cells – cell-based, HCT116 PTEN knockout, dose response (AID 1047); type: functional;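 note: HCT116 colon tumor cells with PTEN knocked out; cells exposed to compound for 60 hours before readout; potency for loss of cell viability measured by luminescence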
# [15] = viability of HCT116 lacking mutant beta-catenin – cell-based, human colon tumor, dose response (AID 1045); type: functional;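 note: HCT116 colon tumor cells with beta catenin knocked out; cells exposed to compound for 60 hours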
# T2 sequence (P11940 whole entry, the tested form may be a part): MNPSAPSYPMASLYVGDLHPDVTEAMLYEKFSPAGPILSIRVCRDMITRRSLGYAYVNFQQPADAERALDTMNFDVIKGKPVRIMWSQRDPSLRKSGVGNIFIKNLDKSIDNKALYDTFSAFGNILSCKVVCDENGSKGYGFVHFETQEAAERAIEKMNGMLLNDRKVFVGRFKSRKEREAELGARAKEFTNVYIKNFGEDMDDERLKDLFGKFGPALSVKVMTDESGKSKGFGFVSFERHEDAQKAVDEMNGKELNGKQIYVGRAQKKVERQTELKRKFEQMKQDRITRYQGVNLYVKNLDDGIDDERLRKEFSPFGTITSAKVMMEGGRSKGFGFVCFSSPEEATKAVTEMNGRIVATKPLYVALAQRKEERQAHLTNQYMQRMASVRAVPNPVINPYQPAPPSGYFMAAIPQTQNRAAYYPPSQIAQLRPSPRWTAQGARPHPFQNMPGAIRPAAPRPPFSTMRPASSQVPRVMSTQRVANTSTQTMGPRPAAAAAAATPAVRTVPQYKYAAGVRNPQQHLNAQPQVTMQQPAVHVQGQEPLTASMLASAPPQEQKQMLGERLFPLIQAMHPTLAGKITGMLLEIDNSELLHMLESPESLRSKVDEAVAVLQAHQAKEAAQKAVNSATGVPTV
# T3 sequence (P49327 whole entry): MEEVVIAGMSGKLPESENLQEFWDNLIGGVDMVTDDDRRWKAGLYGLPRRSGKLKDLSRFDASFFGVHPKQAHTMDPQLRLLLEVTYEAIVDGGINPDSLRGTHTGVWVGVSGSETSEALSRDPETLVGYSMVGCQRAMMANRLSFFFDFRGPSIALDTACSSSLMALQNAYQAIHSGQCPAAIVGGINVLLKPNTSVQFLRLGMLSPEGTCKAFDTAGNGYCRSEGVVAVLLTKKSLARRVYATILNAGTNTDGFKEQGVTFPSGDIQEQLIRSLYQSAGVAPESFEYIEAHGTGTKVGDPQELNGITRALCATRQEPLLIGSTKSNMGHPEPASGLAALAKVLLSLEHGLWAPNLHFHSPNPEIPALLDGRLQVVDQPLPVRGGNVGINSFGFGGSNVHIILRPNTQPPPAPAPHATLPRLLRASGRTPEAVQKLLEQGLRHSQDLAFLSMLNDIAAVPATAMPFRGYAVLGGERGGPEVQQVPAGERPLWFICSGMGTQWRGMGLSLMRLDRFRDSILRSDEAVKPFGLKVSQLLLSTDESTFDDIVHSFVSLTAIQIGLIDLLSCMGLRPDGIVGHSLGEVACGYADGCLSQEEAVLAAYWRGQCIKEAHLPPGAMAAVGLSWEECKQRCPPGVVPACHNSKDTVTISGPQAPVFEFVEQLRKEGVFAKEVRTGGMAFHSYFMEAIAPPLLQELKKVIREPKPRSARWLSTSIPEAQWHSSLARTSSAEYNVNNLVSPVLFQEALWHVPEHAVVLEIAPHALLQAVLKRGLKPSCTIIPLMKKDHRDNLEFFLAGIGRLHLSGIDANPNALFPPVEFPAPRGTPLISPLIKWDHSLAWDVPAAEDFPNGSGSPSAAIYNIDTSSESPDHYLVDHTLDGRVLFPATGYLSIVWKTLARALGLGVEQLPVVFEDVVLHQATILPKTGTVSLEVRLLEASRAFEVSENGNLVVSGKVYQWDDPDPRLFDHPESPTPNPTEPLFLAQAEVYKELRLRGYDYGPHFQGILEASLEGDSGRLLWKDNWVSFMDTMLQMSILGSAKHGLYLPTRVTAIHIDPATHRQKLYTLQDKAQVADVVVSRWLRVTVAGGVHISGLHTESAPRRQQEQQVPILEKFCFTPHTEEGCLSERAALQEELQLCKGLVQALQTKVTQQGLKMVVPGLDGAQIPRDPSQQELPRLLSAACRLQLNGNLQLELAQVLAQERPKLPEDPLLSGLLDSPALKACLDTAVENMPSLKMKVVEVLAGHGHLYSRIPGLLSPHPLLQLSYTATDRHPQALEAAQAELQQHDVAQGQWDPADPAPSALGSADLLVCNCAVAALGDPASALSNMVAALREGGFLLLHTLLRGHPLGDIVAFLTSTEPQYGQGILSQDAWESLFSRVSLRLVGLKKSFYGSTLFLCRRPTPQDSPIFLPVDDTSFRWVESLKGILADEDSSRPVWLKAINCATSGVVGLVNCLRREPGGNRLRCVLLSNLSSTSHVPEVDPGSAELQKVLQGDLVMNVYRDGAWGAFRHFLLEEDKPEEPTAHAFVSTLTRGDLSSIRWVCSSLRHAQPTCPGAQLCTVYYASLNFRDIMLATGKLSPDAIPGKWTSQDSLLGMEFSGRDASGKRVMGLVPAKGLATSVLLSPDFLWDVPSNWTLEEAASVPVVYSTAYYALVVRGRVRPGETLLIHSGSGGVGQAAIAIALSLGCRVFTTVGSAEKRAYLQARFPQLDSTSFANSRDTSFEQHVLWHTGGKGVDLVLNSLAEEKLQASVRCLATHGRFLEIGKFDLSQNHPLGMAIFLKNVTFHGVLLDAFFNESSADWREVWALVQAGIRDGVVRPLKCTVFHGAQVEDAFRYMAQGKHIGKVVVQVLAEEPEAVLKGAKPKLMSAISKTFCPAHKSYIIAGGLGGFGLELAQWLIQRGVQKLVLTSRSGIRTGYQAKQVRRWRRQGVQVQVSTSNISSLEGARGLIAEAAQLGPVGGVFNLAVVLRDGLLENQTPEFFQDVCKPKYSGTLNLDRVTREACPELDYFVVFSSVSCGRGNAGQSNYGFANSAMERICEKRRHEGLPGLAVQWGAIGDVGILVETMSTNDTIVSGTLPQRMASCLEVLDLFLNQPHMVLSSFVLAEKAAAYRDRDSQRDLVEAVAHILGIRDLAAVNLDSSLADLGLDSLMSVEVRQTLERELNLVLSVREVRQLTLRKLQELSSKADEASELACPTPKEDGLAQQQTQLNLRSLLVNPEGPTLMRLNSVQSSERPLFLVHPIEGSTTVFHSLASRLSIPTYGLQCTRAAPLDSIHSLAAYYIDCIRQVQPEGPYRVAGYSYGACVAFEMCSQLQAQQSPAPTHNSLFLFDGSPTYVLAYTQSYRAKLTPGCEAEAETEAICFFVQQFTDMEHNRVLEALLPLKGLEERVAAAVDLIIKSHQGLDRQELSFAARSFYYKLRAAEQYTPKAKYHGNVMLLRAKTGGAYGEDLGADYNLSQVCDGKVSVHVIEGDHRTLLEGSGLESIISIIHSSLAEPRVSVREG
# Chain of FAD-linked sulfhydryl oxidase ALR (P55789 whole entry): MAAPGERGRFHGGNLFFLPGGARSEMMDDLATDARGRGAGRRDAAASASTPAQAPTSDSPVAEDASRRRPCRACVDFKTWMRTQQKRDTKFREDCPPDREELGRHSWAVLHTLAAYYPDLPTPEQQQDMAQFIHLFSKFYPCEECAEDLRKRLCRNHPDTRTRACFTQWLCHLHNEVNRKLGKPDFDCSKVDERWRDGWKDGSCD
structure (smiles),measurement,setting,value
S=C(N/N=C1\CCc2ccccc21)NC1CCCCC1,EC50,[1],87.7 µM (active)
CC(=O)Nc1ccc(NC(=O)c2cc([N+](=O)[O-])cc([N+](=O)[O-])c2)cc1,IC50,cells,13.9 µM (active)
same,EC50,[2],> 60 µM (not active)
same,EC50,[3],1.63 µM (active)
CCn1c2ccccc2c2nnc(SCc3ccc(C(=O)OC)o3)nc21,IC50,[4],> 66 µM (inactive)
same,IC50,[5],> 66 µM (inactive)
COc1ccc(NC(=O)C2Cc3ccccc3C(=O)O2)cc1 (centres undefined),EC50,[1],> 195 µM (not active)
CC[n+]1c(/C=C/c2cc([N+](=O)[O-])ccc2O)ccc2ccccc21,CC50,[6],36.9 µM (active)
same,EC50,[1],> 195 µM (not active)
O=C1CCC(=O)N1c1ccc(CSc2nc3ccccc3[nH]2)cc1,AC50,[7],1.22 µM (active)
CCN(CC(=O)Nc1c(F)cccc1F)C(=O)Cc1ccc2c(c1)CCC2,IC50,[4],> 66 µM (inactive)
same,IC50,[5],> 66 µM (inactive)
O=C(COc1ccc(Cl)cc1Cl)Nn1c(=S)[nH]c2ncccc2c1=O,IC50,[4],> 66 µM (inactive)
same,IC50,[5],> 66 µM (inactive)
O=C(NC1CCCCC1)C1CC(=O)N(c2cccc([N+](=O)[O-])c2)C1 (centres undefined),IC50,Fatty acid synthase [8],1.89 µM (active)
same,IC50,Fatty acid synthase [9],3.47 µM (active)
COc1cccc(NC(=O)N2CCCC2C(=O)NC(C)C)c1 (centres undefined),EC50,[1],152 µM (active)
O=C(c1cccs1)N1CCN=C1SCc1cccnc1,AC50,[7],1.27 µM (active)
COc1ccc(O)c(-c2c(C)n[nH]c2-c2ccc(Cl)cc2)c1,EC50,[1],> 195 µM (not active)
COc1ccccc1NC(=O)CN1CCSc2ccccc21,AC50,[7],1.32 µM (active)
O=C(NC(=S)Nc1cc([N+](=O)[O-])ccc1O)c1cccnc1,IC50,[4],> 66 µM (inactive)
same,IC50,[5],> 66 µM (inactive)
O=C(CNC(=O)c1cccnc1)N/N=C/c1cc(Br)c(O)c(Br)c1,EC50,[1],> 195 µM (not active)
COC(=O)c1cc(S(=O)(=O)NCCc2ccccc2)c[nH]1,EC50,[1],> 195 µM (not active)
O=C(Nc1nnc(-c2ccccc2Cl)o1)c1ccco1,IC50,cells,11.8 µM (active)
O=C(COC(=O)c1cc([N+](=O)[O-])ccc1N1CCCC1)Nc1ccccc1OC(F)F,IC50,Fatty acid synthase [8],9.1 µM (active)
same,IC50,Fatty acid synthase [9],8.72 µM (active)
O=S(=O)(O)c1ccc(N2N=C(c3ccccc3)CC2c2ccccc2)cc1 (centres undefined),AC50,[7],10.9 µM (active)
CC(C)(C)c1ccc(OCCSc2nc3ccccc3n2CC(=O)O)cc1,IC50,Fatty acid synthase [8],2.14 µM (active)
same,IC50,Fatty acid synthase [9],2.39 µM (active)
CSc1nccn1CC(=O)Nc1ccc(F)cc1,AC50,[7],2.88 µM (active)
c1ccc(Cc2nnc3sc(-c4ccncc4)nn23)cc1,IC50,[4],> 66 µM (inactive)
same,IC50,[5],> 66 µM (inactive)
Cc1occc(=O)c1OC(=O)Nc1ccc(Cl)c(Cl)c1,AC50,INS1,5.88 µM (active)
CNC(=S)NN=C(C)c1ccc(OC)cc1O,IC50,[4],> 66 µM (inactive)
same,IC50,[5],> 66 µM (inactive)
O=C(c1ccccc1-c1nc(-c2ccc(Cl)cc2)no1)N1CCCC1,EC50,[10],8.33 µM (active)
same,EC50,H4,99.2 µM (active)
CC(=O)c1cccc(OC(=O)Oc2cccc(C(C)=O)c2)c1,IC50,Fatty acid synthase [8],6.11 µM (active)
same,IC50,Fatty acid synthase [9],10.5 µM (active)
CCCOc1ccc(Cc2c(Cl)nc(SC)nc2NC)cc1,AC50,INS1,3.53 µM (active)
CNC(=O)NC(=S)NC(=O)c1ccccc1Cl,EC50,[1],> 195 µM (not active)
O=C(OCc1nnc(-c2ccccc2)o1)c1cc([N+](=O)[O-])ccc1Cl,IC50,cells,11.8 µM (active)
Cc1ccc(F)cc1N=C(S)NCCc1ccccc1,EC50,[1],> 195 µM (not active)
Nc1ccc(NC(=O)c2cccs2)cc1,AC50,[7],0.515 µM (active)
CCCN1C2CCCC1CC(NC(=O)c1ccc(F)cc1)C2 (centres undefined),IC50,Protein skinhead-1,> 100 µM (inactive)
COc1ccc(C2C=C(c3ccc(C)cc3)Nc3ncnn32)cc1 (centres undefined),IC50,[4],> 66 µM (inactive)
same,IC50,[5],> 66 µM (inactive)
COc1ccc(C(=O)OCC(=O)Nc2ccccc2)cc1[N+](=O)[O-],IC50,Fatty acid synthase [8],9.96 µM (active)
same,IC50,Fatty acid synthase [9],7.38 µM (active)
Cc1ccc(Oc2ccc(S(=O)(=O)Nc3ccc(C(=O)O)cc3)cc2)cc1,AC50,[7],0.714 µM (active)
CC(=O)Oc1ccc(/C=N/NC(=O)C2CCCN2S(=O)(=O)c2ccc(Cl)cc2)cc1 (centres undefined),AC50,[7],12.7 µM (active)
COc1cc(CNC(C)c2ccccc2)cc(Br)c1OCc1ccc(F)cc1 (centres undefined),EC50,[11],17.7 µM (active)
same,AC50,INS1,6.99 µM (active)
same,EC50,[12],19.2 µM (active)
same,IC50,Protein skinhead-1,7.7 µM (active)
same,EC50,[2],> 60 µM (not active)
same,EC50,[3],2.41 µM (active)
same,EC50,[13],> 120 µM (not active)
CCCc1nnc(NC(=O)c2cc3ccccc3oc2=O)s1,IC50,cells,2.83 µM (active)
Cc1cc(N2CCN(S(=O)(=O)c3ccc(Cl)cc3)CC2)c2ccccc2n1,EC50,[14],26.3 µM (active)
same,EC50,[15],24.9 µM (active)
same,AC50,INS1,6.39 µM (active)
CCN(CC)c1ccc(NS(=O)(=O)c2cn(C)c(=O)n(C)c2=O)c(C)c1,AC50,[7],0.789 µM (active)
CCOC(=O)N1CCN(Cc2c(O)ccc3ccccc23)CC1,IC50,[4],> 66 µM (inactive)
same,IC50,[5],> 66 µM (inactive)
CN1C[C@H](C(=O)N[C@]2(C)O[C@@]3(O)[C@@H]4CCCN4C(=O)[C@H](Cc4ccccc4)N3C2=O)CC2c3cccc4[nH]cc(c34)C[C@H]21 (some centres undefined),IC50,Fatty acid synthase [8],15.6 µM (active)
same,IC50,Fatty acid synthase [9],9.27 µM (active)
Cc1ccc(S(=O)(=O)N(C)CC(=O)Nc2ccccc2N2CCCC2)cc1,AC50,[7],2.39 µM (active)
COc1ccc([C@H]2CC(=O)C=C(c3ccc(C)c([N+](=O)[O-])c3)C2)cc1,IC50,Fatty acid synthase [8],2.14 µM (active)
same,IC50,Fatty acid synthase [9],2.65 µM (active)
O=C(COc1ccc(C(=S)N2CCOCC2)cc1Cl)Nc1ccccc1Cl,IC50,[4],> 66 µM (inactive)
same,IC50,[5],> 66 µM (inactive)
CN(/C(=N\S(=O)(=O)c1ccccc1)C(F)(F)F)c1ccccc1,EC50,[1],> 195 µM (not active)
